Experimental data from patent US20060247266A1, “Nitrogen-containing tricyclic compounds” (Asahi Kasei Pharma Corporation, priority 2004, published 2006).

Experiments:
trachea = experiment: Tracheal relaxation action (Test Example 11); set-up: species or system Hartley guinea pigs; conditions: constricted with 10 μM histamine
Protocol: Hartley guinea pigs (male, 300 to 600 g) were bled to death, and each trachea was extracted. The trachea was first cut on the pair of smooth muscles side along the direction parallel to the smooth muscles, then cut along the cartilage to prepare a sample in the form of a strip having a width of about 2 to 3 mm. After removing […], the sample was suspended with a static load of […] in a Magnus bath containing Krebs-Henseleit solution of 37° C. bubbled with a mixed gas of 95% O2 and 5% CO2. Generated tension was recorded on a recorder via an isometric transducer (FD Pickup TB-612T, Nihon Kohden).
After suspending the sample, and waiting for 1 hour or more until a stable ground line was obtainable, a constriction substance was administered, and then the experiment was started after reproducible constriction was obtainable. During this procedure, the solution in the Magnus bath was changed every about 30 minutes. The sample was constricted with 10 μM histamine, and after the time point that the generated tension was stabilized, a test drug was cumulatively administered at various concentrations to examine change in tension of the sample.

intraocular pressure [1] = experiment: Intraocular pressure reduction enhancing action, combination with jointly-used drug (Test Example 13, rabbits); assay type: in vivo; conditions: jointly-used drug isopropylunoprostone, dorzolamide hydrochloride, bunazosin hydrochloride or timolol maleate
Description: For evaluation of intraocular pressure reduction enhancing action of a combination of the compound of the present invention and a jointly-used drug other than latanoprost, rabbits were used as experimental animals, and for evaluation of intraocular pressure reduction enhancing action of a combination of the compound of the present invention and latanoprost, monkeys were used. Naturalization of the rabbits, method for measuring intraocular pressure, and preparation of liquid for eye drop were according to those of Test Example 4. The rabbits were divided into a control group, instillation group for test compound solution alone (single active ingredient preparation group 1), instillation group for jointly-used drug alone (single active ingredient preparation group 2), and instillation group for jointly-used drug and test compound solution (combination use group). After initial values of intraocular pressure of the rabbits in each group were measured, 50 μL of a test compound solution in physiological saline at various concentrations was dropped to the eyes of the rabbits of the single active ingredient preparation group 1 and the combination use group, and physiological saline of the same volume was dropped to the eyes of the rabbits of the control group and the single active ingredient preparation group 2. […] Then, the intraocular pressure was measured in time course for each group. […]

[2] = system: OVA-induced respiratory tract inflammation; experiment: Chronic respiratory tract inflammation suppressing action (Test Example 7); assay type: in vivo, BALB/c female mice; conditions: administration by infusion pump once a day for 5 days
Protocol: According to Henderson, W. R., et al., Am. J. Respir. Cric. Care Med., 165(1), 108-116 (2002), suppressing action on bronchial inflammation was confirmed. BALB/c female mice (7-week old) were used for the test, which were grouped into a negative control group, a positive control group, and a drug administration group. The mice of each group were intraperitoneally administered with ovalbumin (OVA, 100 ng, Sigma) and 1 mg of aluminum hydroxide for initial immunization, and after 2 weeks, they are subcutaneously administered with 10 μg of OVA as additional immunization. In the following experiments, test compounds are used as a solution obtained by dissolving each compound in water containing 0.5% carboxymethylcellulose. […]
Twenty four hours after the final OVA inhalation or inhalation of physiological saline, pulmonary cavities of the test animals were washed with physiological saline containing 1% BSA, and the total infiltrated white blood cells (WBC) were counted. […]
Twenty four hours after the final drug administration, pulmonary cavities of the test animals were washed with physiological saline, and the total infiltrated white blood cells (WBC) were counted.

[3] = system: cerebral hippocampal neurons; experiment: Neurite outgrowth action (Test Example 5); assay type: cell-based, Sprague-Dawley rats; conditions: neurite length 24 hours after addition
Protocol: From 18 day-old Sprague-Dawley rats, cerebral hippocampal neurons were prepared according to the method of Neuman et al. (Neuman, H. R. et al., J. Neurosci., 22, pp. 854-862, 2002). The prepared neurons were cultured for 24 hours according to the method of Tanaka et al. (Tanaka, H. et al., J. Cell Biol., 158 (2), pp. 321-329, 2002), then the medium was exchanged with fresh medium, and test medicaments of various concentrations or equivalent amounts of vehicle were added. Twenty-four hours after the addition of the medicaments, neurite length of each neuron was measured for the medicament-added group and the no-addition group, and compared. The neurite length was evaluated according to the method of Neuman et al. (Neuman, H. R. et al., J. Neurosci., 22, pp. 854-862, 2002).

thoracic aorta = experiment: Vasoconstriction inhibitory action (Test Example 2); set-up: species or system Rats (Wistar); conditions: aorta constricted with phenylephrine (1 μM), test compound (1 μM)
Description: Rats (Wistar, 11-week old) were bleeded to death and laparotomized to take out the thoracic aorta. That aorta was cut into a ring of a length of about 3 mm in a conventional manner (Asano, T., et al., J. Pharmacol. Exp. Ther., 241, pp. 1033-1040 (1987)) and hung in 10-ml organ bath filled with Krebs-Hensright nutrient solution bubbled with a mixed gas of 95% O2 and 5% CO2. One end of the blood vessel was connected to an isometric transducer (FD Pickup TB-912T, Nihon Kohden) and applied with 2.5 g of resting tension, and constriction and relaxation reactions of the aorta were recorded.
The aorta was constricted with phenylephrine (1 μM, Sigma) and then added with a test compound (1 μM), and the vasoconstriction inhibitory action thereof was observed. The vasoconstriction inhibitory actions of the test compounds were calculated as relaxation ratios, which were based on the vasoconstriction with phenylephrine observed immediately before the addition of the test compounds taken as 100%.

intraocular pressure [4] = experiment: Intraocular pressure reducing action (Test Example 4); assay type: in vivo, Japanese white rabbit; conditions: 50 μl of aqueous solution dropped to the left eye
Protocol: A Japanese white rabbit having a body weight of about 2 kg was placed in a positioner and naturalized for one week before the experiment. An ophthalmologic local anesthesant (Benoxil) was administered to the left eye, and then intraocular pressure was measured by using a tonometer (Classic 30, Solan). The initial value of the intraocular pressure was measured, then 50 μl of an aqueous solution of a test compound was dropped to the left eye at various concentrations, and the intraocular pressure was measured with passage of time.

[5] = system: lipopolysaccharide-induced inflammation; experiment: Acute respiratory tract inflammation suppressing action (Test Example 8); assay type: in vivo, BALB/c female mice; conditions: LPS inhalation; for acute respiratory tract inflammation, total infiltrated leucocyte number (WBC): test compound by infusion pump; for acute respiratory tract inflammation, total infiltrated leucocyte (WBC) number: test compound by nebulizer inhalation over 10 minutes
Description: According to Gonzales de Moraes, V L., et al., Br. J. Pharmacol., 123, pp. 631-6, 1998, suppressing action on pulmonary inflammation was studied. BALB/c female mice (7-week old) were used for the test, as the compound administration group and positive control group, each consisting of 7 mice, as well as the negative control group consisting of 5 mice. For induction of inflammation, a 0.03% physiological saline solution of a lipopolysaccharide (LPS, a mixture derived from Escherichia coli O55 and B5 strains, Sigma) was used. A test compound was dissolved in physiological saline to prepare solutions of various concentrations. […] Then, 1 minute after the completion of the inhalation of the lipopolysaccharide solution, the animals were administered with a solution of test compound at various concentrations over 10 minutes by inhalation using the aforementioned nebulizer. The mice of the positive control group were administered with the same volume of physiological saline instead of the test compound solution over 10 minutes by inhalation. The mice of the negative control group were inhaled with physiological saline instead of the lipopolysaccharide solution by inhalation, and then administered with the same volume of physiological saline instead of the test compound solution by inhalation. Three hours after the administration of the test compound, pulmonary cavities of the test animals were washed with physiological saline, and the total infiltrated leucocyte (WBC) number was counted.
Further, after starting the administration of the test compound solution by using an infusion pump, the mice of the drug administration group was inhaled with the lipopolysaccharide solution over 10 minutes by the aforementioned method to induce inflammation. At the same time, the mice of the positive control group were administered with the same volume of physiological saline instead of the test compound, and inflammation was induced by the aforementioned method. For the mice of the negative control group, the same procedure was performed by using physiological saline instead of the test compound, and physiological saline instead of the lipopolysaccharide solution. Three hours after the induction of respiratory tract inflammation, pulmonary cavities of the test animals were washed with physiological saline, and the total infiltrated leucocyte number (WBC) was counted.

[6] = system: histamine-induced constriction of respiratory tract; experiment: Action of suppressing respiratory tract constriction induced by constriction elicitor (Test Example 12); assay type: in vivo, Hartley guinea pigs; conditions: 100 μl test compound solution sprayed onto the respiratory tract
[7] = system: respiratory tract constriction induced by ovalbumin; experiment: Action of suppressing respiratory tract constriction induced by antigen stimulation (Test Example 3); assay type: in vivo, Hartley guinea pigs; conditions: for respiratory tract constriction suppression action by inhalation: 0.1% ovalbumin inhalation, test compound by nebulizer inhalation over 5 minutes; for respiratory tract constriction suppressing action: ovalbumin-immunized guinea pigs, test medicament from cannula in hind leg vein, airway resistance for 15 minutes

SMILES	suppression of constriction of the trachea sample (trachea)	intraocular pressure reducing action, combination use group versus single active ingredient preparation groups 1 and 2 (intraocular pressure [1])	chronic respiratory tract inflammation, total infiltrated white blood cells (WBC) [2]	neurite outgrowth [3]	vasoconstriction inhibitory action (thoracic aorta)	intraocular pressure reducing action (intraocular pressure [4])	acute respiratory tract inflammation, total infiltrated leucocyte number (WBC) [5]	acute respiratory tract inflammation, total infiltrated leucocyte (WBC) number [5]	suppression of constriction of respiratory tract induced by histamine [6]	respiratory tract constriction suppression action by inhalation [7]	respiratory tract constriction suppressing action [7]
FC1CNCCC1N1CCc2cncc3cccc1c23 (stereo not shown)	significantly suppressed constriction of the trachea sample	Enhancement of the intraocular pressure reducing action was also confirmed	significantly improved the pathological conditions	induced significant neurite outgrowth	had vasoconstriction inhibitory action	significant intraocular pressure reducing action	significantly improved the pathological conditions	significantly improved the pathological conditions	significantly suppressed the constriction of respiratory tract	significantly improved the constriction of respiratory tract	significant respiratory tract constriction suppressing action
CN(CCO)C1CCC(N2CCc3cncc4cccc2c34)CC1 (stereo not shown)	significantly suppressed constriction of the trachea sample	Enhancement of the intraocular pressure reducing action was also confirmed	significantly improved the pathological conditions	induced significant neurite outgrowth	had vasoconstriction inhibitory action	significant intraocular pressure reducing action	significantly improved the pathological conditions	significantly improved the pathological conditions	significantly suppressed the constriction of respiratory tract	significantly improved the constriction of respiratory tract	significant respiratory tract constriction suppressing action
